Melting point data for 25 compounds are collected here from patent US6716863B2, “Heterocyclic compounds their production and use” (Takeda Chemical Industries, Ltd., priority 2000, dated 2004).

The term melting point denotes the temperature of the solid-liquid transition.

Consider `Fc1ccc(/C=C/c2nc(COc3ccc(CCCCn4ccnn4)cc3)co2)c(F)c1` [Example 7, 1-{4-[4-({2-[(E)-2-(2,4-difluorophenyl)ethenyl]-1,3-oxazol-4-yl}methoxy)phenyl]butyl}-1H-1,2,3-triazole], for which the melting point was in the range of 115 to 117 °C.
Consider `OCC(O)Cc1nccn1CCCCc1ccc(OCc2coc(/C=C/c3c(F)cccc3F)n2)cc1` (stereo not shown) [Example 28, 3-[1-[4-[4-[[2-[(E)-2-(2,6-difluorophenyl)ethenyl]-1,3-oxazol-4-yl]methoxy]phenyl]butyl]-1H-imidazol-2-yl]-1,2-propanediol], for which the melting point is 123 to 125 °C.
With `OC[C@H](O)Cc1nccn1CCCCc1ccc(OCc2coc(/C=C/c3ccc(F)cc3F)n2)cc1` [Example 29], the melting point was in the range of 104 to 106 °C.
Compound `OCC(O)Cc1nccn1CCCc1cccc(OCc2coc(/C=C/c3ccc(C(F)(F)F)cc3)n2)c1` (stereo not shown) [Example 25, 3-[1-(3-{3-[(2-{(E)-2-[4-(trifluoromethyl)phenyl]ethenyl}-1,3-oxazol-4-yl)methoxy]phenyl}propyl)-1H-imidazol-2-yl]-1,2-propanediol] yielded a melting point of 102 to 104 °C.
The figure for `OCC(O)Cc1nccn1CCCCc1ccc(OCc2coc(/C=C/c3ccc(F)cc3)n2)cc1` (stereo not shown) [Example 23, 3-(1-{4-[4-({2-[(E)-2-(4-fluorophenyl)ethenyl]-1,3-oxazol-4-yl}methoxy)phenyl]butyl}-1H-imidazol-2-yl)-1,2-propanediol] is 114 to 116 °C.
Under `OCCc1nccn1CCCCc1ccc(OCc2coc(/C=C/c3ccc(F)cc3)n2)cc1` [Example 14, 2-(1-(4-[4-({2-[(E)-2-(4-fluorophenyl)ethenyl]-1,3-oxazol-4-yl}methoxy)phenyl]butyl)-1H-imidazol-2-yl)-1-ethanol] stands 130 to 132 °C; under `Cc1cccc(/C=C/c2nc(COc3ccc(CCCCn4ccnc4CC(O)CO)cc3)co2)c1` (stereo not shown) [Example 22, 3-(1-{4-[4-({2-[(E)-2-(3-methylphenyl)ethenyl]-1,3-oxazol-4-yl}methoxy)phenyl]butyl}-1H-imidazol-2-yl)-1,2-propanediol], 102 to 104 °C.
`CCc1ccc(/C=C/c2nc(COc3ccc(CCCCn4ccnc4CCO)cc3)co2)cc1` [Example 13, 2-[1-[4-[4-[[2-[(E)-2-(4-ethylphenyl)ethenyl]-1,3-oxazol-4-yl]methoxy]phenyl]butyl]-1H-imidazol-2-yl]-1-ethanol] gave a melting point of 94 to 95 °C.
The figure for `OCCc1nccn1CCCc1ccc(OCc2coc(/C=C/c3ccc(F)cc3F)n2)cc1` [Example 20, 2-[1-[3-[4-[[2-[(E)-2-(2,4-difluorophenyl)ethenyl]-1,3-oxazol-4-yl]methoxy]phenyl]propyl]-1H-imidazol-2-yl]-1-ethanol] is 94 to 96 °C; for `Cc1ccccc1/C=C/c1nc(COc2ccc(CCCCn3ccnc3CCO)cc2)co1` [Example 12, 2-[1-[4-[4-[[2-[(E)-2-(2-methylphenyl)ethenyl]-1,3-oxazol-4-yl]methoxy]phenyl]butyl]-1H-imidazol-2-yl]-1-ethanol] it is 91 to 93 °C.
The figure for `OCCc1nccn1CCCCc1ccc(OCc2coc(/C=C/c3ccc(Br)cc3)n2)cc1` [Example 16, 2-[1-[4-[4-[[2-[(E)-2-(4-bromophenyl)ethenyl]-1,3-oxazol-4-yl]methoxy]phenyl]butyl]-1H-imidazol-2-yl]-1-ethanol] is 149 to 150 °C; for `OCCc1nccn1CCCCc1ccc(OCc2coc(/C=C/c3ccc(F)cc3F)n2)cc1` [Example 19, 2-[1-[4-[4-[[2-[(E)-2-(2,4-difluorophenyl)ethenyl]-1,3-oxazol-4-yl]methoxy]phenyl]butyl]-1H-imidazol-2-yl]-1-ethanol] it is 93 to 95 °C.
The figure for `OC[C@@H](O)Cc1nccn1CCCCc1ccc(OCc2coc(/C=C/c3ccc(F)cc3F)n2)cc1` [Example 30] is 106 to 108 °C.
Turning to `OCC(O)Cc1nccn1CCCCc1ccc(OCc2coc(/C=C/c3ccc(C(F)(F)F)cc3)n2)cc1` (stereo not shown) [Example 24, 3-[1-(4-(4-[(2-{(E)-2-[4-(trifluoromethyl)phenyl]ethenyl}-1,3-oxazol-4-yl)methoxy]phenyl}butyl)-1H-imidazol-2-yl]-1,2-propanediol], the melting point was in the range of 142 to 143 °C.
Under `Fc1ccc(/C=C/c2nc(COc3cccc(CCCn4ccnn4)c3)co2)c(F)c1` [Example 8, 1-{3-[3-({2-[(E)-2-(2,4-difluorophenyl)ethenyl]-1,3-oxazol-4-yl}methoxy)phenyl]propyl}-1H-1,2,3-triazole] stands 89 to 90 °C; under `Cc1ccc(/C=C/c2nc(COc3ccc(CCCCn4ccnc4CCO)cc3)co2)cc1` [Example 10, 2-[1-[4-[4-[[2-[(E)-2-(4-methylphenyl)ethenyl]-1,3-oxazol-4-yl]methoxy]phenyl]butyl]-1H-imidazol-2-yl]-1-ethanol], 108 to 109 °C; under `FC(F)(F)c1ccc(/C=C/c2nc(COc3cccc(CCCn4ccnn4)c3)co2)cc1` [Example 6, 1-(3-{3-[(2-((E)-2-[4-(trifluoromethyl)phenyl]ethenyl}-1,3-oxazol-4-yl)methoxy]phenyl}propyl)-1H-1,2,3-triazole], 115 to 116 °C.
The figure for `Cc1ccc(/C=C/c2nc(COc3ccc(CCCCn4ccnn4)cc3)co2)cc1` [Example 1] is 154 to 155 °C.
The figure for `Fc1ccc(/C=C/c2nc(COc3cccc(CCCn4ccnn4)c3)co2)cc1` [Example 3, 1-{3-[3-({2-[(E)-2-(4-fluorophenyl)ethenyl]-1,3-oxazol-4-yl}methoxy)phenyl]propyl}-1H-1,2,3-triazole] is 105 to 106 °C; for `OCCc1nccn1CCCCc1ccc(OCc2coc(/C=C/c3ccc(Cl)cc3)n2)cc1` [Example 15, 2-[1-[4-[4-[[2-[(E)-2-(4-chlorophenyl)ethenyl]-1,3-oxazol-4-yl]methoxy]phenyl]butyl]-1H-imidazol-2-yl]-1-ethanol] it is 127 to 128 °C; for `OCCc1nccn1CCCCc1ccc(OCc2coc(/C=C/c3c(F)cccc3F)n2)cc1` [Example 21] it is 106 to 107 °C.
For the compound `FC(F)(F)c1ccc(/C=C/c2nc(COc3ccc(CCCn4ccnn4)cc3)co2)cc1` [Example 5, 1-(3-{4-[(2-((E)-2-[4-(trifluoromethyl)phenyl]ethenyl)-1,3-oxazol-4-yl)methoxy]phenyl}propyl)-1H-1,2,3-triazole], the melting point was 157 to 158 °C.
The figure for `Fc1ccc(/C=C/c2nc(COc3ccc(CCCCn4ccnn4)cc3)co2)cc1` [Example 2, 1-{4-[4-({2-[(E)-2-(4-fluorophenyl)ethenyl]-1,3-oxazol-4-yl}methoxy)phenyl]butyl}-1H-1,2,3-triazole] is 124 to 125 °C; for `Cc1cccc(/C=C/c2nc(COc3ccc(CCCCn4ccnc4CCO)cc3)co2)c1` [Example 11, 2-[1-[4-[4-[[2-[(E)-2-(3-methylphenyl)ethenyl]-1,3-oxazol-4-yl]methoxy]phenyl]butyl]-1H-imidazol-2-yl]-1-ethanol] it is 109 to 111 °C; for `OCC(O)Cc1nccn1CCCCc1ccc(OCc2coc(/C=C/c3ccc(F)cc3F)n2)cc1` (stereo not shown) [Example 26, 3-(1-{4-[4-({2-[(E)-2-(2,4-difluorophenyl)ethenyl]-1,3-oxazol-4-yl]methoxy)phenyl]butyl}-1H-imidazol-2-yl)-1,2-propanediol] it is 126 to 128 °C.
